Source: ChEMBL document CHEMBL1671662, “In vitro activities of telavancin and six comparator agents against anaerobic bacterial isolates” (2009)
Values after ≈ are worked out from the molar mass of the structure shown.

Assays:
Assay type in all cases: functional
Clostridium bolteae = test: Antibacterial activity against Clostridium bolteae by CLSI M11-A6 agar dilution method; details: Enterocloster bolteae
[1] = test system: Enterocloster clostridioformis; test: Antibacterial activity against Clostridium clostridioforme by CLSI M11-A6 agar dilution method
Clostridioides difficile = test: Antibacterial activity against Clostridium difficile by CLSI M11-A6 agar dilution method
Clostridium hathewayi = test: Antibacterial activity against Clostridium hathewayi by CLSI M11-A6 agar dilution method; details: Hungatella hathewayi
Clostridium subterminale = test: Antibacterial activity against Clostridium subterminale by CLSI M11-A6 agar dilution method
Clostridium beijerinckii = test: Antibacterial activity against Clostridium beijerinckii by CLSI M11-A6 agar dilution method
[2] = test system: Clostridium celerecrescens; test: Antibacterial activity against Clostridium celerecrescens by CLSI M11-A6 agar dilution method; details: Lacrimispora celerecrescens
Clostridium leptum = test: Antibacterial activity against Clostridium leptum by CLSI M11-A6 agar dilution method
[3] = test system: Paeniclostridium sordellii; test: Antibacterial activity against Clostridium sordellii by CLSI M11-A6 agar dilution method; details: Paraclostridium sordellii
Clostridium sporogenes = test: Antibacterial activity against Clostridium sporogenes by CLSI M11-A6 agar dilution method
[4] = test system: Clostridium sporosphaeroides; test: Antibacterial activity against Clostridium sporosphaeroides by CLSI M11-A6 agar dilution method; details: Faecalispora sporosphaeroides
Clostridium sp. = test: Antibacterial activity against Clostridium sp. by CLSI M11-A6 agar dilution method
Bifidobacterium bifidum = test: Antibacterial activity against Bifidobacterium bifidum by CLSI M11-A6 agar dilution method
Bifidobacterium dentium = test: Antibacterial activity against Bifidobacterium dentium by CLSI M11-A6 agar dilution method
[5] = test system: Bifidobacterium pseudolongum; test: Antibacterial activity against Bifidobacterium pseudolongum by CLSI M11-A6 agar dilution method
[6] = test system: Coprobacillus cateniformis; test: Antibacterial activity against Coprobacillus cateniformis by CLSI M11-A6 agar dilution method
Coriobacterium = test: Antibacterial activity against […] by CLSI M11-A6 agar dilution method
Eggerthella lenta = test: Antibacterial activity against Eggerthella lenta by CLSI M11-A6 agar dilution method
[7] = test system: Propionibacterium propionicum; test: Antibacterial activity against Propionibacterium propionicus by CLSI M11-A6 agar dilution method; details: Arachnia propionica
Ruminococcus gnavus = test: Antibacterial activity against Ruminococcus gnavus by CLSI M11-A6 agar dilution method; details: Mediterraneibacter gnavus
Ruminococcus obeum = test: Antibacterial activity against Ruminococcus obeum by CLSI M11-A6 agar dilution method; details: Blautia obeum
Ruminococcus albus = test: Antibacterial activity against Ruminococcus albus by CLSI M11-A6 agar dilution method; details: Hominimerdicola alba
Blautia luti = test: Antibacterial activity against Ruminococcus luti by CLSI M11-A6 agar dilution method
Ruminococcus lactaris = test: Antibacterial activity against Ruminococcus lactaris by CLSI M11-A6 agar dilution method
Blautia producta = test: Antibacterial activity against Ruminococcus productus by CLSI M11-A6 agar dilution method
Ruminococcus torques = test: Antibacterial activity against Ruminococcus torques by CLSI M11-A6 agar dilution method; details: Mediterraneibacter torques
Finegoldia magna = test: Antibacterial activity against Finegoldia magna by CLSI M11-A6 agar dilution method
[8] = test system: Peptoniphilus asaccharolyticus; test: Antibacterial activity against Peptoniphilus asaccharolyticus by CLSI M11-A6 agar dilution method
[9] = test system: Peptostreptococcus anaerobius; test: Antibacterial activity against Peptostreptococcus anaerobius by CLSI M11-A6 agar dilution method
Parvimonas micra = test: Antibacterial activity against Peptostreptococcus micros by CLSI M11-A6 agar dilution method
Streptococcus anginosus = test: Antibacterial activity against Streptococcus anginosus by CLSI M11-A6 agar dilution method
[10] = test system: Parabacteroides distasonis; test: Antibacterial activity against Parabacteroides distasonis by CLSI M11-A6 agar dilution method
Parabacteroides merdae = test: Antibacterial activity against Parabacteroides merdae by CLSI M11-A6 agar dilution method
Bacteroides ovatus = test: Antibacterial activity against Bacteroides ovatus by CLSI M11-A6 agar dilution method
[11] = test system: Bacteroides thetaiotaomicron; test: Antibacterial activity against Bacteroides thetaiotaomicron by CLSI M11-A6 agar dilution method
Bilophila wadsworthia = test: Antibacterial activity against Bilophila wadsworthia by CLSI M11-A6 agar dilution method
Prevotella bivia = test: Antibacterial activity against Prevotella bivia by CLSI M11-A6 agar dilution method
Prevotella corporis = test: Antibacterial activity against Prevotella corporis by CLSI M11-A6 agar dilution method
Prevotella nigrescens = test: Antibacterial activity against Prevotella nigrescens by CLSI M11-A6 agar dilution method
Hoylesella loescheii = test: Antibacterial activity against Prevotella loescheii by CLSI M11-A6 agar dilution method
Hoylesella oralis = test: Antibacterial activity against Prevotella oralis by CLSI M11-A6 agar dilution method
Prevotella oris = test: Antibacterial activity against Prevotella oris by CLSI M11-A6 agar dilution method; details: Segatella oris
[12] = test system: Sutterella wadsworthensis; test: Antibacterial activity against Sutterella wadsworthensis by CLSI M11-A6 agar dilution method

Compound: CN[C@H](CC(C)C)C(=O)N[C@H]1C(=O)N[C@@H](CC(N)=O)C(=O)N[C@H]2C(=O)N[C@H]3C(=O)N[C@H](C(=O)N[C@H](C(=O)O)c4cc(O)cc(O)c4-c4cc3ccc4O)[C@H](O)c3ccc(c(Cl)c3)Oc3cc2cc(c3O[C@@H]2O[C@H](CO)[C@@H](O)[C@H](O)[C@H]2O[C@H]2C[C@](C)(N)[C@H](O)[C@H](C)O2)Oc2ccc(cc2Cl)[C@H]1O [VANCOMYCIN]
- MIC50 (Clostridium bolteae): 2 µg/mL (≈ 1.38 µM)
- MIC90 (Clostridium bolteae): 2 µg/mL (≈ 1.38 µM)
- MIC50 [1]: 2 µg/mL (≈ 1.38 µM)
- MIC90 [1]: 2 µg/mL (≈ 1.38 µM)
- MIC50 (Clostridioides difficile): 1 µg/mL (≈ 0.69 µM)
- MIC90 (Clostridioides difficile): 2 µg/mL (≈ 1.38 µM)
- MIC50 (Clostridium hathewayi): 1 µg/mL (≈ 0.69 µM)
- MIC90 (Clostridium hathewayi): 1 µg/mL (≈ 0.69 µM)
- MIC (Clostridium subterminale): 0.5 µg/mL (≈ 0.345 µM)
- MIC50 (Clostridium subterminale): 0.5 µg/mL (≈ 0.345 µM)
- MIC90 (Clostridium subterminale): 1 µg/mL (≈ 0.69 µM)
- MIC50 (Clostridium beijerinckii): 1 µg/mL (≈ 0.69 µM)
- MIC90 (Clostridium beijerinckii): 4 µg/mL (≈ 2.76 µM)
- MIC50 [2]: 1 µg/mL (≈ 0.69 µM)
- MIC90 [2]: 4 µg/mL (≈ 2.76 µM)
- MIC50 (Clostridium leptum): 1 µg/mL (≈ 0.69 µM)
- MIC90 (Clostridium leptum): 4 µg/mL (≈ 2.76 µM)
- MIC50 [3]: 1 µg/mL (≈ 0.69 µM)
- MIC90 [3]: 4 µg/mL (≈ 2.76 µM)
- MIC50 (Clostridium sporogenes): 1 µg/mL (≈ 0.69 µM)
- MIC90 (Clostridium sporogenes): 4 µg/mL (≈ 2.76 µM)
- MIC50 [4]: 1 µg/mL (≈ 0.69 µM)
- MIC90 [4]: 4 µg/mL (≈ 2.76 µM)
- MIC50 (Clostridium sp.): 1 µg/mL (≈ 0.69 µM)
- MIC90 (Clostridium sp.): 4 µg/mL (≈ 2.76 µM)
- MIC50 (Bifidobacterium bifidum): 0.5 µg/mL (≈ 0.345 µM)
- MIC90 (Bifidobacterium bifidum): 4 µg/mL (≈ 2.76 µM)
- MIC50 (Bifidobacterium dentium): 0.5 µg/mL (≈ 0.345 µM)
- MIC90 (Bifidobacterium dentium): 4 µg/mL (≈ 2.76 µM)
- MIC50 [5]: 0.5 µg/mL (≈ 0.345 µM)
- MIC90 [5]: 4 µg/mL (≈ 2.76 µM)
- MIC50 [6]: 0.5 µg/mL (≈ 0.345 µM)
- MIC90 [6]: 4 µg/mL (≈ 2.76 µM)
- MIC50 (Coriobacterium): 0.5 µg/mL (≈ 0.345 µM)
- MIC90 (Coriobacterium): 4 µg/mL (≈ 2.76 µM)
- MIC50 (Eggerthella lenta): 0.5 µg/mL (≈ 0.345 µM)
- MIC90 (Eggerthella lenta): 4 µg/mL (≈ 2.76 µM)
- MIC50 [7]: 0.5 µg/mL (≈ 0.345 µM)
- MIC90 [7]: 4 µg/mL (≈ 2.76 µM)
- MIC50 (Ruminococcus gnavus): 0.5 µg/mL (≈ 0.345 µM)
- MIC90 (Ruminococcus gnavus): 1 µg/mL (≈ 0.69 µM)
- MIC50 (Ruminococcus obeum): 0.5 µg/mL (≈ 0.345 µM)
- MIC90 (Ruminococcus obeum): 0.5 µg/mL (≈ 0.345 µM)
- MIC50 (Ruminococcus albus): 0.5 µg/mL (≈ 0.345 µM)
- MIC90 (Ruminococcus albus): 1 µg/mL (≈ 0.69 µM)
- MIC50 (Blautia luti): 0.5 µg/mL (≈ 0.345 µM)
- MIC90 (Blautia luti): 1 µg/mL (≈ 0.69 µM)
- MIC50 (Ruminococcus lactaris): 0.5 µg/mL (≈ 0.345 µM)
- MIC90 (Ruminococcus lactaris): 1 µg/mL (≈ 0.69 µM)
- MIC50 (Blautia producta): 0.5 µg/mL (≈ 0.345 µM)
- MIC90 (Blautia producta): 1 µg/mL (≈ 0.69 µM)
- MIC50 (Ruminococcus torques): 0.5 µg/mL (≈ 0.345 µM)
- MIC90 (Ruminococcus torques): 1 µg/mL (≈ 0.69 µM)
- MIC50 (Finegoldia magna): 0.5 µg/mL (≈ 0.345 µM)
- MIC90 (Finegoldia magna): 1 µg/mL (≈ 0.69 µM)
- MIC50 [8]: 0.5 µg/mL (≈ 0.345 µM)
- MIC90 [8]: 1 µg/mL (≈ 0.69 µM)
- MIC50 [9]: 0.5 µg/mL (≈ 0.345 µM)
- MIC90 [9]: 1 µg/mL (≈ 0.69 µM)
- MIC50 (Parvimonas micra): 0.5 µg/mL (≈ 0.345 µM)
- MIC90 (Parvimonas micra): 1 µg/mL (≈ 0.69 µM)
- MIC50 (Streptococcus anginosus): 2 µg/mL (≈ 1.38 µM)
- MIC90 (Streptococcus anginosus): 2 µg/mL (≈ 1.38 µM)
- MIC50 [10]: 128 µg/mL (≈ 88.3 µM)
- MIC90 [10]: 128 µg/mL (≈ 88.3 µM)
- MIC50 (Parabacteroides merdae): 128 µg/mL (≈ 88.3 µM)
- MIC90 (Parabacteroides merdae): 128 µg/mL (≈ 88.3 µM)
- MIC50 (Bacteroides ovatus): 128 µg/mL (≈ 88.3 µM)
- MIC90 (Bacteroides ovatus): 128 µg/mL (≈ 88.3 µM)
- MIC50 [11]: > 128 µg/mL
- MIC90 [11]: > 128 µg/mL
- MIC (Bilophila wadsworthia): > 128 µg/mL
- MIC50 (Bilophila wadsworthia): > 128 µg/mL
- MIC90 (Bilophila wadsworthia): > 128 µg/mL
- MIC50 (Prevotella bivia): 32 µg/mL (≈ 22.1 µM)
- MIC90 (Prevotella bivia): > 128 µg/mL
- MIC50 (Prevotella corporis): 32 µg/mL (≈ 22.1 µM)
- MIC90 (Prevotella corporis): > 128 µg/mL
- MIC50 (Prevotella nigrescens): 32 µg/mL (≈ 22.1 µM)
- MIC90 (Prevotella nigrescens): > 128 µg/mL
- MIC50 (Hoylesella loescheii): 32 µg/mL (≈ 22.1 µM)
- MIC90 (Hoylesella loescheii): > 128 µg/mL
- MIC50 (Hoylesella oralis): 32 µg/mL (≈ 22.1 µM)
- MIC90 (Hoylesella oralis): > 128 µg/mL
- MIC50 (Prevotella oris): 32 µg/mL (≈ 22.1 µM)
- MIC90 (Prevotella oris): > 128 µg/mL
- MIC [12]: > 128 µg/mL
- MIC50 [12]: > 128 µg/mL
- MIC90 [12]: > 128 µg/mL
